Assay results taken from patent publication US9283280B2, “Compositions for drug administration” (Aegis Therapeutics, LLC, priority 2008, dated 2016).

How the values were obtained:
blood D-glucose [1] = test: Insulin eye drops with absorption enhancer in xylazine/ketamine-anesthetized hyperglycemic rats, blood D-glucose; type: in vivo, rat; details: for hypoglycemic effect / insulin absorption enhancement: eye drops 0.2% insulin + 0.5% enhancer; for absorption enhancing activity by alkyl chain length: ocular insulin, concentration not given
blood D-glucose [2] = test: Glucagon eye drops with surfactant in rats, elevation of blood D-glucose; details: for Blood Glucose Concentration: glucagon eye drops + 0.5% surfactant added after 120 min
Procedure: Glucagon absorption from the eye was measured in rats given eye drops containing various surfactants plus glucagon (30 μg) (Eli Lilly, Indianapolis, Ind.) by monitoring an elevation in blood D-glucose levels. In these experiments, rats were anesthetized with sodium pentobarbital rather than xylazine/ketamin.
Paired animals that receive eye drops containing the surfactant alone, or glucagon alone, were compared to animals receiving eye drops with the surfactant plus glucagon.

[3] = Intranasal triptans with alkylsaccharide in rats, plasma levels by HPLC; type: in vivo;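 further: rats in groups of eight given 20 µL into one nostril, dose expressed as triptan free base, Cmax and Tmax read from plasma concentration–time curves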
Procedure: Each set of drug solutions is administered to six groups of eight rats each by 20 uL instillation to a single nare of each animal. […] After the last blood sample is collected each animal is cuthanizcd with CO2. After blood collection, plasma is immediately prepared from each blood sample using lithium/heparin as the anticoagulant. Plasma samples are stored at −70° C. until analyzed. […] The observed Tmax values from each plot is determined by inspection of the concentration vs time plots and recorded as shown in Table XII. The doses designated in this table reflect amounts of triptan free base in each case.

[4] = 0.5% surfactant, time −10 min, before insulin eye drops
[5] = 0.5% surfactant, time −20 min, before insulin eye drops
[6] = insulin eye drops + 0.5% surfactant, time 0 min
[7] = insulin eye drops + 0.5% surfactant, time 10 min
[8] = insulin eye drops + 0.5% surfactant, time 20 min
[9] = insulin eye drops + 0.5% surfactant, time 30 min
[10] = insulin eye drops + 0.5% surfactant, time 40 min
[11] = insulin eye drops + 0.5% surfactant, time 50 min
[12] = insulin eye drops + 0.5% surfactant, time 60 min
[13] = insulin eye drops + 0.5% surfactant, time 70 min
[14] = insulin eye drops + 0.5% surfactant, time 80 min
[15] = insulin eye drops + 0.5% surfactant, time 90 min
[16] = insulin eye drops + 0.5% surfactant, time 100 min
[17] = insulin eye drops + 0.5% surfactant, time 110 min
[18] = insulin eye drops + 0.5% surfactant, time 120 min
[19] = Naratriptan 0.22 mg/kg intranasal, alkylsaccharide 0.02%
[20] = Naratriptan 0.22 mg/kg intranasal, alkylsaccharide 0.05%
[21] = Naratriptan 0.22 mg/kg intranasal, alkylsaccharide 0.1%
[22] = Naratriptan 0.22 mg/kg intranasal, alkylsaccharide 0.5%
[23] = Naratriptan 0.22 mg/kg intranasal, alkylsaccharide 2%
[24] = Rizatriptan […] intranasal, alkylsaccharide 0.02%
[25] = Rizatriptan […] intranasal, alkylsaccharide 0.05%
[26] = Rizatriptan […] intranasal, alkylsaccharide 0.1%
[27] = Rizatriptan […] intranasal, alkylsaccharide 0.5%
[28] = Rizatriptan […] intranasal, alkylsaccharide 2%
[29] = Sumatriptan 6.2 mg/kg intranasal, alkylsaccharide 0.02%
[30] = Sumatriptan 6.2 mg/kg intranasal, alkylsaccharide 0.05%
[31] = Sumatriptan 6.2 mg/kg intranasal, alkylsaccharide 0.1%
[32] = Sumatriptan 6.2 mg/kg intranasal, alkylsaccharide 0.5%
[33] = Sumatriptan 6.2 mg/kg intranasal, alkylsaccharide 2%
[34] = insulin eye drops + 0.5% alkylglucoside

For CCCCCCCCCCO[C@@H]1O[C@H](CO)[C@@H](O[C@H]2O[C@H](CO)[C@@H](O)[C@H](O)[C@H]2O)[C@H](O)[C@H]1O [decyl maltoside, decyl-β-D-maltoside], the “Blood Glucose Concentration” value (blood D-glucose [1]; [4]) was 287 mg/dL, the “Blood Glucose Concentration” value (blood D-glucose [1]; [5]) was 249 mg/dL and the “hypoglycemic effect / insulin absorption enhancement” value (blood D-glucose [1]) was “prompt and sustained fall in blood glucose levels”. For the same compound, the “Blood Glucose Concentration” value (blood D-glucose [1]; [6]) was 337 mg/dL, the “Blood Glucose Concentration” value (blood D-glucose [1]; [7]) was 304 mg/dL and the “Blood Glucose Concentration” value (blood D-glucose [1]; [8]) was 292 mg/dL. The “Blood Glucose Concentration” value (blood D-glucose [1]; [9]) was 221 mg/dL, the “Blood Glucose Concentration” value (blood D-glucose [1]; [10]) was 164 mg/dL and the “Blood Glucose Concentration” value (blood D-glucose [1]; [11]) was 138 mg/dL. For the same compound, the “Blood Glucose Concentration” value (blood D-glucose [1]; [12]) was 114 mg/dL, the “Blood Glucose Concentration” value (blood D-glucose [1]; [13]) was 104 mg/dL and the “Blood Glucose Concentration” value (blood D-glucose [1]; [14]) was 110 mg/dL. For the same compound, the “Blood Glucose Concentration” value (blood D-glucose [1]; [15]) was 120 mg/dL, the “Blood Glucose Concentration” value (blood D-glucose [1]; [16]) was 92 mg/dL and the “Blood Glucose Concentration” value (blood D-glucose [1]; [17]) was 81 mg/dL. The “Blood Glucose Concentration” value (blood D-glucose [1]; [18]) was 87 mg/dL, the “absorption enhancing activity by alkyl chain length” value (blood D-glucose [1]) was “less absorption enhancing activity” and the “glucagon absorption / blood D-glucose values” (blood D-glucose [2]; eye drops surfactant plus glucagon in rats previously treated with surfactant plus insulin eye drops) was “increase significantly”. The “Blood Glucose Concentration” value (blood D-glucose [2]; time 130 min) was 95 mg/dL, the “Blood Glucose Concentration” value (blood D-glucose [2]; time 140 min) was 99 mg/dL and the “Blood Glucose Concentration” value (blood D-glucose [2]; time 150 min) was 132 mg/dL. For the same compound, the “Blood Glucose Concentration” value (blood D-glucose [2]; time 160 min) was 157 mg/dL, the “Blood Glucose Concentration” value (blood D-glucose [2]; time 170 min) was 171 mg/dL and the “Blood Glucose Concentration” value (blood D-glucose [2]; time 180 min) was 180 mg/dL. The “Blood Glucose Concentration” value (blood D-glucose [2]; time 190 min) was 189 mg/dL, the “Ratio Cmax(alkylsacch)/Cmax(No alkylsacch)” value [3, 19] was “≦1.5” and the Tmax [3, 19] was roughly 1 to 2 h. For the same compound, the “Ratio Cmax(alkylsacch)/Cmax(No alkylsacch)” value [3, 20] was “≦1.5”, the Tmax [3, 20] was roughly 1 to 2 h and the “Ratio Cmax(alkylsacch)/Cmax(No alkylsacch)” value [3, 21] was “≧1.5”. For the same compound, the Tmax [3, 21] was roughly 1 to 2 h, the “Ratio Cmax(alkylsacch)/Cmax(No alkylsacch)” value [3, 22] was “≧1.5” and the Tmax [3, 22] was roughly 0.083 to 0.25 h. The “Ratio Cmax(alkylsacch)/Cmax(No alkylsacch)” value [3, 23] was “≧1.5”, the Tmax [3, 23] was roughly 0.083 to 0.25 h and the Tmax [3, 24] was roughly 1 to 2 h. The Tmax [3, 25] was roughly 1 to 2 h, the Tmax [3, 26] was roughly 1 to 2 h and the Tmax [3, 27] was roughly 0.083 to 0.25 h. For the same compound, the Tmax [3, 28] was roughly 0.083 to 0.25 h, the “Ratio Cmax(alkylsacch)/Cmax(No alkylsacch)” value [3, 29] was “≦1.5” and the Tmax [3, 29] was roughly 1 to 2 h. For the same compound, the “Ratio Cmax(alkylsacch)/Cmax(No alkylsacch)” value [3, 30] was “≦1.5”, the Tmax [3, 30] was roughly 1 to 2 h and the “Ratio Cmax(alkylsacch)/Cmax(No alkylsacch)” value [3, 31] was “≧1.5”. For the same compound, the Tmax [3, 31] was roughly 1 to 2 h, the “Ratio Cmax(alkylsacch)/Cmax(No alkylsacch)” value [3, 32] was “≧1.5” and the Tmax [3, 32] was roughly 0.083 to 0.25 h. For the same compound, the “Ratio Cmax(alkylsacch)/Cmax(No alkylsacch)” value [3, 33] was “≧1.5” and the Tmax [3, 33] was roughly 0.083 to 0.25 h.

For CCCCCCCOC1O[C@H](CO)[C@@H](O)[C@H](O)[C@H]1O (some centres unmarked) [heptylglucoside, heptylglucopyranoside], the “hypoglycemic effect / insulin absorption enhancement” value (blood D-glucose [1]) was “ineffective”.

For CCCCCCOC1O[C@H](CO)[C@@H](O)[C@H](O)[C@H]1O (some centres unmarked) [hexylglucoside, Hexylglucopyranoside], the “hypoglycemic effect / insulin absorption enhancement” value (blood D-glucose [1]) was “ineffective”.

For CCCCCCCCCOC1O[C@H](CO)[C@@H](O)[C@H](O)[C@H]1O (some centres unmarked) [nonylglucoside, nonylglucopyranoside], the “hypoglycemic effect / insulin absorption enhancement” value (blood D-glucose [1]) was “effectively stimulated insulin absorption”, the “blood glucose level, initial (from)” value (blood D-glucose [1]; [34]) was 297 mg/dL and the “blood glucose level, reduced (to)” value (blood D-glucose [1]; [34]) was 150 mg/dL.

For CCCCCCCCO[C@@H]1O[C@H](CO)[C@@H](O[C@H]2O[C@H](CO)[C@@H](O)[C@H](O)[C@H]2O)[C@H](O)[C@H]1O [octyl maltoside, Octyl-β-D-maltoside], the “absorption enhancing activity by alkyl chain length” value (blood D-glucose [1]) was “no”, the “Ratio Cmax(alkylsacch)/Cmax(No alkylsacch)” value [3, 19] was “≦1.5” and the Tmax [3, 19] was roughly 1 to 2 h. The “Ratio Cmax(alkylsacch)/Cmax(No alkylsacch)” value [3, 20] was “≦1.5”, the Tmax [3, 20] was roughly 1 to 2 h and the “Ratio Cmax(alkylsacch)/Cmax(No alkylsacch)” value [3, 21] was “≦1.5”. The Tmax [3, 21] was roughly 1 to 2 h, the “Ratio Cmax(alkylsacch)/Cmax(No alkylsacch)” value [3, 22] was “≦1.5” and the Tmax [3, 22] was roughly 1 to 2 h. The “Ratio Cmax(alkylsacch)/Cmax(No alkylsacch)” value [3, 23] was “≦1.5”, the Tmax [3, 23] was roughly 1 to 2 h and the Tmax [3, 24] was roughly 1 to 2 h. For the same compound, the Tmax [3, 25] was roughly 1 to 2 h, the Tmax [3, 26] was roughly 1 to 2 h and the Tmax [3, 27] was roughly 1 to 2 h. The Tmax [3, 28] was roughly 1 to 2 h, the “Ratio Cmax(alkylsacch)/Cmax(No alkylsacch)” value [3, 29] was “≦1.5” and the Tmax [3, 29] was roughly 1 to 2 h. The “Ratio Cmax(alkylsacch)/Cmax(No alkylsacch)” value [3, 30] was “≦1.5”, the Tmax [3, 30] was roughly 1 to 2 h and the “Ratio Cmax(alkylsacch)/Cmax(No alkylsacch)” value [3, 31] was “≦1.5”. For the same compound, the Tmax [3, 31] was roughly 1 to 2 h, the “Ratio Cmax(alkylsacch)/Cmax(No alkylsacch)” value [3, 32] was “≦1.5” and the Tmax [3, 32] was roughly 1 to 2 h. For the same compound, the “Ratio Cmax(alkylsacch)/Cmax(No alkylsacch)” value [3, 33] was “≦1.5” and the Tmax [3, 33] was roughly 1 to 2 h.

With decylsucrose the “hypoglycemic effect / insulin absorption enhancement” value (blood D-glucose [1]) was “effective in reducing blood glucose levels”, the blood glucose level (blood D-glucose [1]; insulin eye drops + 0.5% alkyl saccharide, time 0 min) was 313 mg/dL and the blood glucose level (blood D-glucose [1]; insulin eye drops + 0.5% alkyl saccharide, time 120 min) was 164 mg/dL.

For dodecylsucrose [dodecyl sucrose], the “Blood Glucose Concentration” value (blood D-glucose [1]; [4]) was 305 mg/dL, the “Blood Glucose Concentration” value (blood D-glucose [1]; [5]) was 266 mg/dL and the “Blood Glucose Concentration” value (blood D-glucose [1]; [6]) was 351 mg/dL. For the same compound, the “Blood Glucose Concentration” value (blood D-glucose [1]; [7]) was 347 mg/dL, the “Blood Glucose Concentration” value (blood D-glucose [1]; [8]) was 252 mg/dL and the “Blood Glucose Concentration” value (blood D-glucose [1]; [9]) was 161 mg/dL. For the same compound, the “Blood Glucose Concentration” value (blood D-glucose [1]; [10]) was 120 mg/dL, the “Blood Glucose Concentration” value (blood D-glucose [1]; [11]) was 105 mg/dL and the “Blood Glucose Concentration” value (blood D-glucose [1]; [12]) was 114 mg/dL. The “Blood Glucose Concentration” value (blood D-glucose [1]; [13]) was 113 mg/dL, the “Blood Glucose Concentration” value (blood D-glucose [1]; [14]) was 104 mg/dL and the “Blood Glucose Concentration” value (blood D-glucose [1]; [15]) was 86 mg/dL. For the same compound, the “Blood Glucose Concentration” value (blood D-glucose [1]; [16]) was 113 mg/dL, the “Blood Glucose Concentration” value (blood D-glucose [1]; [17]) was 107 mg/dL and the “Blood Glucose Concentration” value (blood D-glucose [1]; [18]) was 112 mg/dL. The blood glucose level (blood D-glucose [1]; insulin eye drops + […] alkyl saccharide, time 0 min) was 335 mg/dL, the blood glucose level (blood D-glucose [1]; insulin eye drops + […] alkyl saccharide, time 120 min) was 150 mg/dL and the Tmax [3, 19] was roughly 1 h. The Tmax [3, 20] was roughly 0.083 to 0.25 h, the Tmax [3, 21] was roughly 0.083 to 0.25 h and the Tmax [3, 22] was roughly 0.083 to 0.25 h. For the same compound, the Tmax [3, 23] was roughly 0.083 to 0.25 h, the Tmax [3, 24] was roughly 1 h and the Tmax [3, 25] was roughly 0.083 to 0.25 h. For the same compound, the Tmax [3, 26] was roughly 0.083 to 0.25 h, the Tmax [3, 27] was roughly 0.083 to 0.25 h and the Tmax [3, 28] was roughly 0.083 to 0.25 h. For the same compound, the Tmax [3, 29] was roughly 1 h, the Tmax [3, 30] was roughly 0.083 to 0.25 h and the Tmax [3, 31] was roughly 0.083 to 0.25 h. The Tmax [3, 32] was roughly 0.083 to 0.25 h and the Tmax [3, 33] was roughly 0.083 to 0.25 h.
